# Experiments:
# [1] = system: collagenase I promoter; test: Experiment 1: collagenase I promoter (-73/+63)-luciferase in CV1 cells transfected with GR1 (glucocorticoid receptor); type: cell-based, African Green Monkey; conditions: for % control (GR1): Blank = 100
# Excerpt: (§1) Two plasmid constructs were introduced by standard calcium phosphate precipitation of DNA followed by glycerol shock (Ausubel F M, Brent R, Kingston D D, Moore J G et al Current protocols in molecular biology 1994 Greene Publishing Associates/Wiley-Interscience, New York, N.Y.) using a transformed African Green Monkey kidney cell line (CV1) (Schneikert J, Peterziel H, Defossez P-A, Klocker H, de Launoit Y and Cato A C B Androgen receptor-Ets protein interaction is a novel mechanism for steroid hormone-mediated down-modulation of matrix metalloproteinase expression, Journal of Biological Chemistry. Vol 271(39) (pp 23907-23913), 1996).
# (§2) Accordingly, the following two plasmids were included into CV1 cells described above — • (a) Either of GR1 or pSG5ARF containing glucocorticoid or androgen receptor (AR) respectively, both at 2 ug per 5×10^5 cells, driven by the Rous sarcoma virus promoter, and • (b) a plasmid containing the −73/+63 portion of the collagenase I promoter linked to luciferase gene at 8 ug per 5×10^5 cells.
# (§3) CPII was compound II above, clobuzarit.
# [2] = system: collagenase (MMP-1) promoter; test: Experiment 4.1: collagenase (MMP-1) promoter (-517/+63)-luciferase in MCF-7 cells, endogenous thyroid hormone receptors; type: cell-based, human; conditions: MCF-7, endogenous thyroid hormone receptors; for % Control: Blank = 100
# Protocol: (§4) These experiments were intended to identify the receptor through which compounds I might be acting to block collagenase promoter activity.
# (§5) Transfection procedure hereinbefore described with CV1 cells was repeated using MCF-7 mammary breast cancer cells derived from pleural effusion from a breast cancer patient. Additionally, each experiment included transfection of a plasmid (at 8 ug per 5×10^5 cells) containing the −517/+63 section of the collagenase (MMP-1) promoter linked to the luciferase gene. TPA was used as above to stimulate activity of the collagenase promoter resulting in luciferase production. Compound II or 3,3,5-triiodo-L-thyronine (T3) was included (both at 10^−8M), the latter being a known ligand for the thyroid hormone receptor.
# Experiment 4.1. As MCF-7 cells express endogenous thyroid hormone receptors, only the collagenase promoter plasmid (at 8 ug per 5×10^5 cells) was transfected into the MCF-7 cells.
# [3] = molecular target: T1, androgen receptor (Homo sapiens, UniProt P10275); test: Experiment 2: PGL3MMTV-luciferase transactivation in CV1 cells with androgen receptor (AR); type: cell-based; conditions: for % control (AR): Blank = 100
# T1 construct: expressed in transfected cells; host or cells: CV1 (transformed African Green Monkey kidney cell line)
# T1 sequence (P10275 1-920): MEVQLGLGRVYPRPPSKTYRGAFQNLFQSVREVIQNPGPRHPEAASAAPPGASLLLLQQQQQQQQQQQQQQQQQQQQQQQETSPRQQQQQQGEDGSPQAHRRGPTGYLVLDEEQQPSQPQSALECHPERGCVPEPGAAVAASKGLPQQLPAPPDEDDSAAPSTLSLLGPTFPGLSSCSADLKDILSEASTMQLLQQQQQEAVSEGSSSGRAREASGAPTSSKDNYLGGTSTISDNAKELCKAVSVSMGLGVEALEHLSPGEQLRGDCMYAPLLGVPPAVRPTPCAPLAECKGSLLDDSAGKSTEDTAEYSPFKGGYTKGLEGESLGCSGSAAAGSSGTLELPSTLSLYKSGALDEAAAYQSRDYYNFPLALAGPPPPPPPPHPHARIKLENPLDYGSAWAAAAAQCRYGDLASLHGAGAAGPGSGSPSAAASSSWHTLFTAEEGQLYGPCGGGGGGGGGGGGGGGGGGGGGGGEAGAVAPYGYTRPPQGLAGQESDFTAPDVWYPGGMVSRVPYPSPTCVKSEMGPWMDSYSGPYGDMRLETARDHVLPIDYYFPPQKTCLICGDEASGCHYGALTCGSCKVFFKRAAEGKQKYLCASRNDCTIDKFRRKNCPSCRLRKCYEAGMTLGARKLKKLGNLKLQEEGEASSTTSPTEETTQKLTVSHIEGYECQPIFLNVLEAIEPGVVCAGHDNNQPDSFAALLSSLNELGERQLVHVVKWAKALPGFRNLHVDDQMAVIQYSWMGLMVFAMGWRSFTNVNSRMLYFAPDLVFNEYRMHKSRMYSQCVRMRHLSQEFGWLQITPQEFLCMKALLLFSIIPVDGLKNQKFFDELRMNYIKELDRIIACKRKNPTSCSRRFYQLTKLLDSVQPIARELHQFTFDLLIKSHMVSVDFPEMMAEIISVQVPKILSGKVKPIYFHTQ
# Excerpt: as §1
# This experiment was intended to investigate the activation of androgen and corticosteroid receptors by compound I.
# CPII was compound II above, clobuzarit, which was used at 10^−7M.
# [4] = system: collagenase (MMP-1) promoter; test: Experiment 4.2: collagenase (MMP-1) promoter-luciferase in MCF-7 cells with antisense construct for the thyroid receptor; type: cell-based, human; conditions: MCF-7 + thyroid receptor antisense; for % Control: Blank = 100
# Protocol: as §4, §5
# Experiment 4.2. The procedure of Experiment 4.1 was repeated except that a second plasmid, containing 662 bp antisense construct for the thyroid receptor (at 8 ug per 5×10^5 cells) was additionally transfected.
# [5] = system: collagenase I promoter; test: Experiment 1: collagenase I promoter (-73/+63)-luciferase in CV1 cells, no receptor plasmid (Empty); type: cell-based, African Green Monkey; conditions: for Raw counts (Empty) / % control (Empty): no receptor; for % control (Empty): Blank = 100
# Excerpt: as §1, §2, §3
# [6] = system: collagenase (MMP-1) promoter; test: Experiment 4.3: collagenase (MMP-1) promoter-luciferase in MCF-7 cells with transfected chick thyroid hormone receptor; type: cell-based, human; conditions: MCF-7 + chick thyroid hormone receptor; for % Control: Blank = 100
# Protocol: as §4, §5
# [7] = substance added with TPA 75 ng/ml, Dex 10^-7M
# [8] = substance 10^-8M added with TPA
# [9] = substance added alone, CPII 10^-8M
# [10] = CPII 10^-7M together with DHT 10^-7M
# [11] = substance added with TPA 75 ng/ml
smiles,measurement,setting,value
"CC(C)(OCc1ccc(-c2ccc(Cl)cc2)cc1)C(=O)O [Compound II, 1-[4-(4-chlorophenyl)benzyloxy]-1-methylpropionic acid]",% control (GR1),[1]; substance added alone,48%
same,Raw counts (GR1),"[1]; substance added alone, TPA 75 ng/ml",6151 counts
same,Raw counts (GR1),[1]; [7],39968 counts
same,% control (GR1),[1]; [7],311%
same,"collagenase I activation, in words (GR1)","[1]; TPA-stimulated, glucocorticoid receptor",able to down regulate collagenase I activation
same,"effect on TPA stimulation of luciferase production, in words",[2],able further to enhance TPA stimulation of luciferase production
same,Raw Counts,[2]; [8],352376 counts
same,% Control,[2]; [8],2802.2%
same,% Control,[2]; substance added alone,47.9%
same,Raw Counts,[2]; [9],6029 counts
same,"activation of androgen receptor-driven transcription, in words","[3]; 10^-7M, compared with DHT",negligible activity
same,Raw counts (AR),[3]; [10],1232241 counts
same,% control (AR),[3]; [10],26574%
same,Raw counts (AR),[3]; substance alone at 10^-7M,33130 counts
same,% control (AR),[3]; substance alone at 10^-7M,714%
same,"luciferase production when thyroid hormone receptor synthesis is inhibited, in words",[4],substantially prevented
same,Raw Counts,[4]; [8],8716 counts
same,% Control,[4]; [8],597.8%
same,% Control,[4]; substance added alone,163.2%
same,Raw Counts,[4]; [9],2379 counts
same,"collagenase I (MMP) promoter activity in the absence of either receptor, in words","[5]; TPA stimulated and unstimulated, Empty",able to reduce the level
same,Raw counts (Empty),"[5]; luciferase, substance added alone, TPA 75 ng/ml",1882 counts
same,% control (Empty),[5]; substance added alone,78%
same,Raw counts (Empty),[5]; [11],2747 counts
same,% control (Empty),[5]; [11],115%
same,"stimulated collagenase transcription, in words",[6]; TPA,able to reduce stimulated collagenase transcription
same,Raw Counts,[6]; [8],4414 counts
same,% Control,[6]; [8],202%
same,% Control,[6]; substance added alone,72%
same,Raw Counts,[6]; [9],1572 counts
